Series [1] in a line: Triple helix melting point (Tm) by circular dichroism at 225 nm. It is filed as physicochemical. The note with it: for Tm (° C.): triple helix melting. On the procedure: FIGS. 5A, 5B, 5C, and 5D show the thermal denaturation of fully assembled CHPs and subsequent cooling to initial temperature. Samples were heated at 1° C./min from their initial temperature final temperature of 90° C. Sample was then cooled at 1° C./min to the starting temperature. (A) Thermal denaturation and partial reassembly of CHP CF-6d (150 μM) monitored at 225 nm. Sample was measured from 4° C. to 90° C. (B) Thermal denaturation and partial reassembly of CHP […] (75 μM, corresponding to 150 μM strand concentration) monitored at 225 nm. Sample was measured from 4° C. to 90° C. (C) Thermal denaturation and partial reassembly of CHP CF-9 (150 μM) monitored at 225 nm. Sample was measured from 10° C. to 90° C. (D) Thermal denaturation and partial reassembly of CHP CF-9d (75 μM, corresponding to 150 μM strand concentration) monitored at 225 nm. Sample was measured from 10° C. to 90° C.
FIGS. 11A and 11B show the First Derivative of mean residue ellipticity (MRE) at 225 nm in CD. […] There is no significant change in melting point between the monomeric and dimeric forms of the same peptide.
Circular Dichroism: Circular Dichroism (CD) was measured for all peptides at 225 nm. Melting curves were taken on peptides between 10 and 80° C. at a heating rate of 0.5° C./min, with pauses at each 1° C. Refolding experiments were performed after peptide solutions were incubated at 4° C. for at least 12 hours. Concentrations were normalized to strand concentration.
Background: Circular dichroism is widely used to follow secondary structure.

Another series has as its system porcine gelatin. Put plainly: SPR gelatin capture by immobilized biotinylated CHPs. It counts as binding. The note with it: gelatin 25 μg/mL. On the procedure:
FIGS. 7A and 7B show SPR data for porcine gelatin capture by immobilized CHPs. […] Gelatin was applied to the sensor surface during the association phase, followed by elution with blank during dissociation phase. Association occurred for 981 s, followed by dissociation for 1800 s. Values were normalized to a 100% biotin lane, and were adjusted to the mass of peptide immobilized in each well. (A) Preheated (80° C., 10 min), quenched (0° C., 30 s) gelatin (25 μg/mL) was applied to the sensor at an ambient temperature of 37° C. (B) Preheated (80° C., 10 min), quenched (0° C., 30 s) gelatin (25 μg/mL) was applied to the sensor at an ambient temperature of 15° C.
Surface Plasmon Resonance (SPR). […] However, there were major differences observed during the association phase. At 37° C., there was a much higher amount of gelatin adsorbed to all the peptides tested on the surface when compared to 15° C. […] At 15° C., gelatin adsorbed to the surface at a much slower rate. […] However, this lower adsorption rate can be due to a reduced diffusion rate near the surface or a more condensed gelatin structure at this lower temperature.
Dimeric CHP is able to hybridize effectively with denatured collagens with faster folding kinetics than current, monomeric CHPs. Surface plasmon resonance (SPR) was used to measure the ability of the CHPs to trap denatured collagen from solution.

Series [2] concerns crosslinked gelatin films. Put plainly: Binding of CF-labelled CHPs to crosslinked gelatin films at 37° C. with and without preheating. Conditions: 20 μM, 37° C. overnight, PBS wash 20 h, FIG. 6C. The arrangement: species or system porcine. On the procedure: FIGS. 3A and 3B show the affinity of CHPs to gelatin films as monitored by fluorescence of conjugated CF fluorophore (492 ex, 533 em). (A) Fluorescence of CHPs bound to crosslinked gelatin after incubation at 37° C. overnight with no workup. (B) Fluorescence of CHPs remaining in crosslinked gelatin after incubation at 37° C. overnight without preheating, followed by washing with 1×PBS at 37° C. (20 h).
(A) Fraction of peptide remaining in a crosslinked gelatin film after 17 h at 25° C. (10 total washes). Values are normalized to fluorescence remaining in wells after 6 washes at 4° C. (>95% removal of CHPs 9r, 6r, and 5r). All washes performed in 1×PBS. (B) CHPs (15 μM) premixed into 10% porcine gelatin and preheated to 80° C. (10 min) before being added to a 96 well plate. Excess CHP-gelatin mixture was removed, then the premix was incubated at 4° C. for 2 hours. Wells were washed at 4° C., 5 times (>95% removal of CHPs 9r, 6r, and 5r). Wells were then washed for 2 hours (6 washes total) at 25° C. to monitor CHP remaining in the well. (C) Fluorescence of CHPs remaining in crosslinked gelatin after incubation at 37° C. overnight without preheating, followed by washing with 1×PBS at 37° C. (20 h). (D) Fluorescence of CHPs remaining in crosslinked gelatin after incubation at 37° C. overnight (80° C. preheating, 10 min), followed by washing with 1×PBS at 37° C. (20 h).
Dimeric CHPs were assessed for their ability to bind to collagen strands in crosslinked gelatin films. CHP solutions (20 μM in PBS) were added directly to the crosslinked gelatin films. For heated experiments, CHPs were preheated to 80° C. for 10 minutes before addition. Peptides were allowed to fully equilibrate with the gel at 37° C. overnight before being exposed to repeated washes (4×, PBS) at 37° C. to fully remove any non-specifically bound peptide and to determine binding level at body temperature. To measure retention, peptides were bound as previously described, but were subsequently washed with PBS 37° C. (5×1 h, 1×12 h) to measure retention within the gelatin films. […] Additionally, after a period of 20 hours, higher level of the dimeric CHP remained in the gelatin compared to the monomeric CHP.
A major limitation of the use of CHP in vivo, is the requirement of the triple helix to be fully disassembled before being injected. […] For this test, peptide solutions were allowed to warm to room temperature before being added (50 μL, 20 μM) to previously prepared crosslinked gelatin films. Solutions were then incubated at 37° C. overnight before removing the solution. Wells were washed at 37° C. with PBS (20 h) to determine binding. Preheated samples were prepared and incubated in the same way, but with preheating (80° C., 10 min) before being added to the crosslinked gelatin wells.

One substance from US11684675B2, “Dimeric collagen hybridizing peptides and methods of using” (University of Utah Research Foundation, priority 2015, dated 2023) can be followed below.

As a reminder, the melting point is the temperature, or range, at which the solid turns liquid. In series [1] (Example 3), [(GPO)6G3)2KG [6d] had a melting point of 38 °C. For the same substance, the “Tm (° C.)” value in series [1] (Table 1) and in series [1] (Table 2) was 38 (SEQ ID NO: 58) ° C throughout. Further, the “ability to bind gelatin” value in the series on porcine gelatin (15° C.) is listed as “only able to bind gelatin at a rate comparable to the monomeric CHPs”; in the series on porcine gelatin (37° C.) it was “higher ability to bind gelatin than that of an equivalent number of strands in their monomeric counterparts”. Moreover, in series [2], the “binding to gelatin wells at 37° C. without preheating” value is on record as “bind more significantly than the GPO9 monomer without preheating”.
